From publication PMC3349722, “Prediction of Drug-Target Interactions and Drug Repositioning via Network-Based Inference” (PLoS Computational Biology, 2012) come the findings set out here.

The target of one test is ERβ (Homo sapiens, UniProt Q92731). Kind of test: Yeast two-hybrid system-based assay (ERβ LBD/SRC1, α-galactosidase), agonist and antagonist mode. Format: cell-based. The note with it: for Inhibitive Ratio% (10 μM), ERβ: antagonist assay with 1 nM E2; for IC50: read-out: IC50 on ERβ (antagonistic activity).
The target in a further test is T1, ERα (Homo sapiens, UniProt P03372).
T1 sequence (P03372 301-553): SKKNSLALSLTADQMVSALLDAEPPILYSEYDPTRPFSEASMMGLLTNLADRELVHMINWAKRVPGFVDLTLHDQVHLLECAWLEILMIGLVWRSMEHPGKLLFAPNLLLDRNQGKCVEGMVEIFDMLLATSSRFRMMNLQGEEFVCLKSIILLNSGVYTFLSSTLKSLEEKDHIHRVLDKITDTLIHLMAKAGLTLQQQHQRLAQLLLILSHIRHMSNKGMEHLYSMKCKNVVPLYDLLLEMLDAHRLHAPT
The test can be described thus: Yeast two-hybrid system-based assay (ERα LBD/SRC1, α-galactosidase), agonist and antagonist mode. It is filed as cell-based. The settings on record: for Inhibitive ratio % (10 μM), ERα: antagonist assay with 1 nM E2; for Agonistic activities (10 μM), ERα: DMSO = 1; for EC50: agonist testing.

Another test deals with T2, human recombinant DPP-IV (Homo sapiens, UniProt P27487).
T2 construct: purchased Biomol
Kind of test: Dipeptidyl peptidase-IV inhibition assay (DPP-IV Drug Discovery Kit, fluorimetric). The settings on record: for Inhibition Ratio (%) to DPP-IV: test concentration not given. Format: biochemical. As for the experimental part:
The inhibitory effects of compounds on human recombinant DPP-IV was determined using a DPP-IV Drug Discovery Kit (Biomol, USA) according to the manufacturer's instructions. The activity of DPP-IV was detected in a Synergy™ 2 Multi-Mode Microplate Reader (BioTek) at an excitation wavelength of 380 nm and an emission wavelength of 460 nm. […] IC50 values were determined using the GraphPad Prism 4 software with three independent determinations.
Table S4. The inhibitive activities profiles of nine approved drugs for dipeptidyl peptidase -IV
(DPP -IV ) enzyme inhibition assay. The inhibitory effects of compounds on human recombinant
DPP4 was determined using a DPP -IV Drug Discovery Kit (Biomol, USA) according to the
manufacturer ’s instructions. The DPP-IV Drug Discovery Kit is a complete assay system designed
to screen DPP 4 small molecule inhibitors. The fluorimetric assay is based on the cleavage of
7- a mino -4-methylcoumarin (AMC) moiety from peptide substrate (H-Gly-P ro-AMC), which
increases its fluorescence intensity at 460 nm. Compounds dilutions were prepared from stock in
DMSO and diluted with assay buffer for inhibition assay. A 40 μL solution of DPP -IV enzyme in
assa y buffer was incubated with 10μ L of various concentrations of test compoundsolutions for 10
min at room temperature. The reaction was initiated b y the addition of 50 μL of H-Gly-P ro- AMC
with a final concentration of 5 μM. The activity of DPP4 was detected in a Synergy™ 2
Multi-Mode Microplate Reader (BioTek) at an excitation wavelength of 380 nm and an emission
wavelength of 460 nm. […] IC 50 values were
determined by using the G raphP ad Prism 4 software with three independent determinations.

The test system of a further test is MDA-MB-231 cells. The test can be described thus: MTT assay of cell proliferation. The settings on record: Homo sapiens, MDA-MB-231 breast cancer cell line, 24 h, read-out: Antiproliferative activity IC50. Format: cell-based. As for the experimental part: Cell proliferation was quantified by MTT assay. MDA-MB-231 cells were seeded at a density of 1.5×10^4 in a 96-well plate with DMEM/F12 supplemented with 10% charcoal stripped FBS without phenol red, and then incubated with the tested compounds in humidified air containing 5% CO2 at 37°C. After incubation for 24 h, 20 µL of 5 mg/mL MTT was added and incubated for another 4 h. Then the converted dye was dissolved in 100 µL of DMSO and the absorbance was measured at 570 nm.
A general note: Tetrazolium dyes change colour on reduction, which living cells bring about.

A further test has as its system ERα and ERβ. Kind of test: Yeast two-hybrid system-based assay, summary statements on ER (subtype not separated).

Structures can show the parent of a compound that is named as a salt. Where two headings read alike, the source gives them in different places.

Chain of ERβ (Q92731 248-510): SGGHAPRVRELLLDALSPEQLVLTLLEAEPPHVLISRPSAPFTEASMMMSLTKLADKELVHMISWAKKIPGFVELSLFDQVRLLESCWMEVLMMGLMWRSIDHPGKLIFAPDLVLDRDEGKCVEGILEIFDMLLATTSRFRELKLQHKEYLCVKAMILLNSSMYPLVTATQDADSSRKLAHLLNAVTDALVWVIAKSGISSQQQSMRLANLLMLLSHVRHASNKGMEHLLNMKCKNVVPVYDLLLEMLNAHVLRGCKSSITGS
T2 sequence (P27487 whole entry): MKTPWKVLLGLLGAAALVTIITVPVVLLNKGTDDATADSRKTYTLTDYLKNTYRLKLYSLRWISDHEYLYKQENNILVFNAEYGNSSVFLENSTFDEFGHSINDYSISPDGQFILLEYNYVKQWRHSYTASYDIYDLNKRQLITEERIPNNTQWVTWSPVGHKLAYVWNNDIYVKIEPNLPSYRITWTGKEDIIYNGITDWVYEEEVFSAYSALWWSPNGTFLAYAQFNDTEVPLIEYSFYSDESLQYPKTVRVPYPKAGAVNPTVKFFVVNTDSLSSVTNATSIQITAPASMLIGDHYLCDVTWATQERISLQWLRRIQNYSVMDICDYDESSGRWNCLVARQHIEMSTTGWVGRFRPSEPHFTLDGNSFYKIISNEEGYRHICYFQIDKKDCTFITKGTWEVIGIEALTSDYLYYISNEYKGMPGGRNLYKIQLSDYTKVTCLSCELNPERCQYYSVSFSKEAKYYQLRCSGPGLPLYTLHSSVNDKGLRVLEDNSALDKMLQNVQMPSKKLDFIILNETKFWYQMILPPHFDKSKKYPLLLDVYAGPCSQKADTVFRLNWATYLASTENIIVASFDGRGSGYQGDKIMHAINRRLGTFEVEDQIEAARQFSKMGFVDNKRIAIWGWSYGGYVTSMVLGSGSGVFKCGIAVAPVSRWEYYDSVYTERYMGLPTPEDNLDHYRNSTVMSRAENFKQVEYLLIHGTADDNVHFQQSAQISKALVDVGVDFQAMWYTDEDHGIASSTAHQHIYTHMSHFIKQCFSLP

With 17-hydroxyprogesterone, the “Inhibitive Ratio% (10 μM), ERβ” value at ERβ came to 13.01%. For the same molecule, the “Agonistic activities (10 μM), ERβ” value on ERβ (DMSO = 1) stood at 0.961.
As for `COC(=O)C1=C(C)NC(C)=C(C(=O)OCCN(C)Cc2ccccc2)C1c1cccc([N+](=O)[O-])c1` (stereo not shown) [Nicardipine], on ERα, the “Inhibitive ratio % (10 μM), ERα” value was found to be 15.21% and the “Agonistic activities (10 μM), ERα” value is on record as 0.962. Besides, the “Inhibition Ratio (%) to DPP-IV” value on human recombinant DPP-IV is 21.24%.
Regarding `CN(C)C(=O)C(CCN1CCC(O)(c2ccc(Cl)cc2)CC1)(c1ccccc1)c1ccccc1` [Loperamide], the “Inhibitive Ratio% (10 μM), ERβ” value on ERβ is 0%. The “Agonistic activities (10 μM), ERβ” value on ERβ (DMSO = 1) is listed as 0.910. In addition, on ERα, the “Inhibitive ratio % (10 μM), ERα” value was 6.18% and the “Agonistic activities (10 μM), ERα” value stood at 0.934.
On to `CC[C@@H]1C(=O)OC[C@@H]1Cc1cncn1C.Cl` [Pilocarpine HCl], for which, on ERα, the “Agonistic activities (10 μM), ERα” value is on record as 1.008.
For the molecule `CS(=O)(=O)CCNCc1ccc(-c2ccc3ncnc(Nc4ccc(OCc5cccc(F)c5)c(Cl)c4)c3c2)o1` [Lapatinib], at ERα, the “Inhibitive ratio % (10 μM), ERα” value was 14.01% and the “Agonistic activities (10 μM), ERα” value turned out to be 0.995. Besides, the “Inhibition Ratio (%) to DPP-IV” value at human recombinant DPP-IV turned out to be 39.64%.
With `CC(C)C(=O)Nc1ccc([N+](=O)[O-])c(C(F)(F)F)c1` [Flutamide], the “Inhibitive Ratio% (10 μM), ERβ” value on ERβ is 2.83%. For the same molecule, the “Agonistic activities (10 μM), ERβ” value at ERβ (DMSO = 1) is recorded as 0.949.
In the case of `CC(C)(C#N)c1cc(Cn2cncn2)cc(C(C)(C)C#N)c1` [Anastrozole], the “Agonistic activities (10 μM), ERβ” value at ERβ (DMSO = 1) turned out to be 1.011.
`CC(=O)N1CCN(c2ccc(OCC3COC(Cn4ccnc4)(c4ccc(Cl)cc4Cl)O3)cc2)CC1` (stereo not shown) [Ketoconazole]: the “Agonistic activities (10 μM), ERβ” value at ERβ (DMSO = 1) was found to be 0.853. In addition, the IC50 (in general, the concentration needed to halve the response being measured) at ERβ is 790 nM; in the test on MDA-MB-231 cells, 8.95 µM. In addition, the “IC50 or EC50 values on ER” value in the test with ERα and ERβ was “less than 1 μM”; with ERα and ERβ (listed as ketoconazole), “less than 10 μM”.
Take `NS(=O)(=O)Cc1noc2ccccc12` [Zonisamide]: the “Agonistic activities (10 μM), ERβ” value on ERβ (DMSO = 1) stood at 1.029.
`Nc1nc2c(ncn2CCC(CO)CO)c(=O)[nH]1` [Penciclovir]: at ERβ, the “Inhibitive Ratio% (10 μM), ERβ” value is reported as 0%. For the same molecule, the “Agonistic activities (10 μM), ERβ” value at ERβ (DMSO = 1) was 0.947.
Consider `CC(C)(O)c1ccccc1CC[C@@H](SCC1(CC(=O)O)CC1)c1cccc(/C=C/c2ccc3ccc(Cl)cc3n2)c1` [Montelukast], for which, on human recombinant DPP-IV, the “Inhibition Ratio (%) to DPP-IV” value worked out at 49.7%. In addition, at human recombinant DPP-IV (three independent determinations), the IC50 worked out at 9.79 µM.
As to `CCC(C)(C)C(=O)O[C@H]1C[C@@H](C)C=C2C=C[C@H](C)[C@H](CC[C@@H]3C[C@@H](O)CC(=O)O3)[C@H]21` [Simvastatin], the IC50 with MDA-MB-231 cells came to 1.49 µM.
Take `COc1ccc2[nH]cc(CCNC(C)=O)c2c1` [Melatonin]: on ERβ, the “Inhibitive Ratio% (10 μM), ERβ” value amounted to 0%. Moreover, the “Agonistic activities (10 μM), ERβ” value at ERβ (DMSO = 1) was found to be 0.914.
Regarding `CC[C@H](C)C(=O)O[C@H]1C[C@@H](C)C=C2C=C[C@H](C)[C@H](CC[C@@H]3C[C@@H](O)CC(=O)O3)[C@H]21` [Lovastatin], the “Inhibition Ratio (%) to DPP-IV” value at human recombinant DPP-IV amounted to 9.49%.
Take `N[C@@H]1C[C@H]1c1ccccc1` (racemic) [Tranylcypromine]: at ERβ, the “Inhibitive Ratio% (10 μM), ERβ” value is recorded as 0%. The “Agonistic activities (10 μM), ERβ” value at ERβ (DMSO = 1) was 0.965. Also, on ERα, the “Inhibitive ratio % (10 μM), ERα” value amounted to 4.3% and the “Agonistic activities (10 μM), ERα” value came to 0.988.
As for `NC(=O)N1c2ccccc2C=Cc2ccccc21` [Carbamazepine], the “Inhibition Ratio (%) to DPP-IV” value at human recombinant DPP-IV worked out at 19.67%.
Regarding `O=c1[nH]c2ccccc2n1C1CCN(CCCC(c2ccc(F)cc2)c2ccc(F)cc2)CC1` [Pimozide], at ERα, the “Inhibitive ratio % (10 μM), ERα” value came out at 4.58% and the “Agonistic activities (10 μM), ERα” value is reported as 0.955.
For `CN/C(=N/CCSCc1nc[nH]c1C)NC#N` [Cimetidine], in that order: 2.4% and 1.018.
For `CCC1(c2ccc(N)cc2)CCC(=O)NC1=O` (racemic) [Dl-aminoglutethimide], the “Agonistic activities (10 μM), ERα” value on ERα is on record as 0.956.
With `C=CCN1CC[C@]23c4c5ccc(O)c4O[C@H]2C(=O)CC[C@@]3(O)[C@H]1C5` [Naloxone HCl], the “Inhibitive Ratio% (10 μM), ERβ” value at ERβ is given as 0%. In addition, the “Agonistic activities (10 μM), ERβ” value on ERβ (DMSO = 1) came out at 1.051.
With `CCC(C)n1ncn(-c2ccc(N3CCN(c4ccc(OCC5COC(Cn6cncn6)(c6ccc(Cl)cc6Cl)O5)cc4)CC3)cc2)c1=O` (stereo not shown) [Itraconazole], on ERβ, the “Inhibitive Ratio% (10 μM), ERβ” value stood at 51.99%. For the same molecule, the “Agonistic activities (10 μM), ERβ” value at ERβ (DMSO = 1) is listed as 1.890. Also, the IC50 on ERβ (antagonist assay) was found to be 280 nM. Besides, the “Inhibitive ratio % (10 μM), ERα” value on ERα was 8.19%. For the same molecule, on ERα, the “Agonistic activities (10 μM), ERα” value was 4.132. The EC50 (usually the concentration that produces a half-maximal response) at ERα (REC50 on ERα (concentration showing 50% of the maximum agonistic activity of E2), relative to E2) is 320 nM; on ERα (read-out: EC50 on ERα (agonistic activity)), 200 nM. In addition, the “IC50 or EC50 values on ER” value in the test with ERα and ERβ was “less than 1 μM”; in the test with ERα and ERβ (listed as itraconazole) it was “less than 10 μM”.
For the molecule `Cc1ccc(C)c(OCCCC(C)(C)C(=O)O)c1` [Gemfibrozil], at human recombinant DPP-IV, the “Inhibition Ratio (%) to DPP-IV” value is on record as 17.35%.
Regarding `O=C(O)Cc1ccccc1Nc1c(Cl)cccc1Cl` [Diclofenac], the “Agonistic activities (10 μM), ERβ” value at ERβ (DMSO = 1) was found to be 0.846. For the same molecule, the IC50 on ERβ was 2320 nM. For the same molecule, the “IC50 or EC50 values on ER” value with ERα and ERβ is reported as “less than 10 μM”.
Consider `CC#C[C@]1(O)CC[C@H]2[C@@H]3CCC4=CC(=O)CCC4=C3[C@@H](c3ccc(N(C)C)cc3)C[C@@]21C` [Mifepristone], for which the “Inhibitive Ratio% (10 μM), ERβ” value on ERβ is listed as 27.16%. The “Agonistic activities (10 μM), ERβ” value on ERβ (DMSO = 1) turned out to be 1.080. Besides, at ERα, the “Inhibitive ratio % (10 μM), ERα” value is 0% and the “Agonistic activities (10 μM), ERα” value is recorded as 1.463.
As for `CCc1ccc(CCOc2ccc(CC3SC(=O)NC3=O)cc2)nc1` (stereo not shown) [Pioglitazone], the “Inhibition Ratio (%) to DPP-IV” value on human recombinant DPP-IV is given as 18.63%.
Consider `N#Cc1ccc(C(c2ccc(C#N)cc2)n2cncn2)cc1` [Letrozole], for which the “Inhibitive Ratio% (10 μM), ERβ” value on ERβ worked out at 0%. On ERβ (DMSO = 1), the “Agonistic activities (10 μM), ERβ” value is 0.846.
Consider `C[C@]12CC[C@@H]3c4ccc(O)cc4CC[C@H]3[C@@H]1CC[C@@H]2O` [E2, estradiol], for which the “Agonistic activities, ERβ, E2 control” value at ERβ (1 nM, DMSO = 1) is 5.77.
`CN(C)CCCN1c2ccccc2Sc2ccc(Cl)cc21` [Chlorpromazine HCl]: the “Inhibitive Ratio% (10 μM), ERβ” value on ERβ came to 3.11%. Moreover, at ERβ (DMSO = 1), the “Agonistic activities (10 μM), ERβ” value is reported as 0.981.
Consider `CC(=O)OCC(CCn1cnc2cnc(N)nc21)COC(C)=O` [Famciclovir], for which, at ERβ, the “Inhibitive Ratio% (10 μM), ERβ” value is given as 0%. For the same molecule, the “Agonistic activities (10 μM), ERβ” value on ERβ (DMSO = 1) is 0.894.
